In PMC11898605, “Selective Azapeptide CD36 Ligand MPE-298 Regulates oxLDL-LOX-1-Mediated Inflammation and Mitochondrial Oxidative Stress in Macrophages” (Cells, 2025):

Tests used:
RAW264.7 cells [1] = test: mtROS production (MitoSOX Red) in RAW264.7 cells; assay type: cell-based, murine; settings: for effect of inhibitor on oxLDL-elicited mtROS production: 30 min pre-exposure, oxLDL 25 μg/mL 4 h, Figures S4C, 5F; for effect of inhibitor on MPE-298's inhibition of oxLDL-elicited mtROS production: SSO 100 μM, PP1 3 μg/mL, cytochalasin D 2 μg/mL, 2-BP 100 μM, BI-0115 5 μM, Figure 5A,B,F
Experimental: RAW264.7 cells (17,000 cells/well) or M1 BMDM (60,000 cells/well) in complete medium (RPMI 1640 supplemented with 10% FBS and 1% penicillin/streptomycin), were seeded in 96-well tissue culture plates and incubated overnight at 37 °C in 5% CO2. On the day of experimentation, cells were starved in RPMI medium supplemented with 1% penicillin/streptomycin and 0.2% BSA for 1 h. Cells were first pretreated with MPE-298 for 1 h and stimulated or not with oxLDL for 4 h. In other experiments, cells were preincubated with inhibitors as indicated in the figure legends prior to MPE-298 incubation and oxLDL stimulation. After the stimulation period, cells were washed with Hanks’ balanced salt solution (HBSS, Wisent Inc.) and incubated with a mixture of MitoSOX Red (5 μM), a mitochondrial superoxide indicator, and Hoechst-33342 (4 μM), a nuclear staining dye, for 20 min at 37 °C. The fluorescence intensities were analyzed using a Synergy2 (BioTek) microplate reader with the following filter sets: excitation/emission at 510/580 nm for MitoSox and 350/461 nm for Hoechst-33342. Fluorescence intensity of MitoSox was normalized by fluorescence intensity of Hoescht-33342.

CD36 = molecular target: T1, CD36 (Mus musculus, UniProt Q08857); test: BRET-based CD36 internalization assay; assay type: cell-based; settings: 30 min pretreatment: PP1 3 μg/mL, cytochalasin D 2 μg/mL, piceatannol 40 μM, 2-bromopalmitate 100 μM, SSO 100 μM, BI-0115 5 μM; then ligand 15 min
T1 construct: CD36 ORF was amplified from pCMV3-mCD36-GFPSpark; expressed in transfected cells; host or cells: J774A.1 murine macrophages, transiently co-transfected with mCD36-RlucII and rGFP-CAAX
Text: For the construction of mouse CD36-RlucII, CD36 ORF was amplified from pCMV3-mCD36-GFPSpark using the 5′-primer NheI-CD36-Forward: […] and 3′-primer HindIII-CD36-Reverse: […] primers to introduce NheI and HindIII digestion sites sequences. The final product was subcloned in-frame into NheI/HindIII of pcDNA3.1/hygromycin (+) plasmid containing the RlucII [19]. The rGFP-CAAX plasmid, constructed as previously described, was kindly provided by Dr. Stephane Laporte.
For the BRET assay, J774A.1 cells were seeded in a 96-well plate (white, flat bottom) at a density of 35,000 cells/well in DMEM supplemented with 10% FBS and 1% penicillin/streptomycin. Cells were grown at 37 °C in 5% CO2 and 90% humidity. The next day, the culture medium was changed to DMEM 10% FBS and 0.2% penicillin/streptomycin, supplemented with 5-azacytidine (1 μM) for 2 h. Cells were transiently transfected using a mixed solution containing mCD36-RlucII plasmid (25.6 ng), rGFP-CAAX plasmid (31.7 ng), and pcDNA3.1(+) for a total of 80 ng cDNA/well. TransIT-X2® reagent was used at a cDNA-to-reagent ratio of 1 μg to 4 μL. Twenty-four hours later, cells were starved for 2 h in Tyrode’s buffer (140 mM NaCl, 2.7 mM KCl, 1 mM CaCl2, 12 mM NaHCO3, 5.6 mM D-glucose, 0.5 mM MgCl2, 0.37 mM NaH2PO4, and 25 mM HEPES, pH 7.4) supplemented with 0.01% BSA. Luminescence was induced with Prolume Purple (1.5 μM final) for 2 min in Tyrode’s buffer. Luminescence signal was measured using a Tecan Spark Multimode microplate reader (Tecan Trading AG, Männedorf, Switzerlnd) in the BRET2 mode with filter sets of 420/70 nm and 515/30 nm for detecting RlucII and rGFP signals, respectively. The BRET ratio was determined as follows: [(intensity emitted by the rGFP/intensity emitted by the Rluc2) − (intensity emitted by the rGFP/intensity emitted by the Rluc2 for the CD36-RLuc2 control cells)].
For kinetic study, transiently co-transfected J774A.1 cells were incubated at different times with MPE-298 (100 nM) or oxLDL (25 μg/mL). In experimental protocols involving pharmacological inhibitors, cells transiently co-transfected were pretreated with PP1 (3 μg/mL), cytochalasin D (2 μg/mL), piceatannol (40 μM), 2-bromopalmitate (100 μM), SSO (100 μM), and BI-0115 (5 μM) for 30 min. CD36 internalization was then induced with MPE-298 and oxLDL for 15 min. For the BRET saturation studies, the cells were transiently transfected with a fixed concentration of mCD36-RlucII plasmid (25.6 ng) and increasing concentrations of rGFP-CAAX plasmid ranging from 0 to 77 ng for 24 h.

RAW264.7 cells [2] = test: Mitochondrial membrane potential (JC-1) in RAW264.7 cells; assay type: cell-based, murine; settings: for effect of inhibitor on oxLDL-elicited mitochondrial membrane depolarization: Figures S4D, 5G; for effect of inhibitor on MPE-298's reversal of oxLDL-elicited mitochondrial membrane depolarization: SSO 100 μM, PP1 3 μg/mL, 2-BP 100 μM, BI-0115 5 μM, Figure 5D,G
Experimental: For the measurement of the mitochondrial membrane potential (ΔΨM), treated cells were incubated in HBSS with 5,5′,6,6′-tetrachloro-1,1′,3,3′-tetraethylbenzimidazolylcarbocyanine iodide (JC-1, 5 μM), a membrane-permeable cationic dye (Invitrogen-Life Technologies, Carlsbad, CA, USA). After 20 min, cells were extensively washed with HBSS. Fluorescence from aggregated JC-1 was measured with an excitation wavelength of 550 nm and emission wavelength of 600 nm, and fluorescence from JC-1 monomer was detected with an excitation wavelength of 485 nm and emission wavelength of 535 nm. The ΔΨM was determined from the ratio of intensities at 600 nm and 535 nm.

CCL2 = CCL2 secretion, ELISA; assay type: cell-based, mouse; settings: RAW264.7, SSO 100 μM, Figure 4G
Experimental: RAW264.7 cells were seeded at a density of 150,000/well in 48-well plates. The next day, the cells were weaned for 4 h in DMEM supplemented with 0.2% BSA, exposed to MPE-298 or oxLDL or the combination of MPE-298 and oxLDL, and incubated at 37 °C in 5% CO2 for 16 h. After the incubation period, media were collected and assessed for CCL2 chemokine using a mouse ELISA detection kit (Invitrogen-Life Technologies, Carlsbad, CA, USA) following the manufacturer’s instructions. For experiments using inhibitors, the cells were pre-exposed to SSO for 30 min prior to stimulation with MPE-298 or oxLDL.

JNK (Thr183/Tyr185) = test: Western blot of JNK phosphorylation in RAW264.7 cells; assay type: cell-based, murine; settings: preincubation before oxLDL, BI-0115 5 μM, SSO 100 μM, Figures 7A, S5
Experimental: (§1) Murine RAW264.7 cells or M1 BMDMs were seeded in 6-well plates. The next day, cells were starved for 4 h and treated with MPE-298 (100 nM) or oxLDL (25 μg/mL) for the indicated times. Cells were washed with cold PBS, then lysed for 30 min in ice-cold radioimmunoprecipitation assay buffer (RIPA) (150 mM NaCl, 50 mM Tris-HCl, 1% Triton X-100, 0.2% SDS, 50 mM NaF, and 2 mM EDTA, pH 7.4) containing protease and phosphatase inhibitors (Pierce Biotechnology, Waltham, MA, USA). Cell lysates were centrifuged at 15,000× g for 20 min at 4 °C.
(§2) The protein concentration of supernatants was determined by a bicinchoninic acid (BCA) assay (Pierce Biotechnology, Waltham, MA, USA). Equal amounts of protein extracts were separated on 4–12% SDS–polyacrylamide gels and transferred to polyvinylidene difluoride (PVDF) membranes (Bio-Rad Laboratories, Hercules, CA, USA) for immunoblotting. Membranes were blotted with primary antibodies p47phox and Rac1/2/3 for phosphorylated Syk (Tyr348), as well as SRC family kinases (Tyr416), Lyn (Tyr397), JNK (Thr183/Tyr185), and p66Shc (Ser36). […] Immunoblotted bands were detected by enhanced chemiluminescence with West Femto chemiluminescent substrate (Thermo Scientific, Waltham, MA, USA) using a ChemiDoc MP Imaging System (Bio-Rad Laboratories, Hercules, CA, USA). […]

p66Shc (Ser36) = test: Western blot of p66Shc phosphorylation in RAW264.7 cells; assay type: cell-based, murine; settings: preincubation before oxLDL, BI-0115 5 μM, SSO 100 μM, Figures 7A, S5
Experimental: as §1, §2

RAW264.7 cells [3] = test: ATTO-465-MPE-298 internalization in RAW264.7 cells; assay type: cell-based, murine; settings: 30 min pretreatment with PP1 3 μg/mL, PP2 3 μg/mL or cytochalasin D 2 μg/mL, ATTO-465-MPE-298 500 nM 15 min, acid wash, n = 3 in triplicate
Experimental: RAW 264.7 cells (ATCC) were seeded at 125,000 cells per well in a 96-well plate and allowed to adhere overnight in Roswell Park Memorial Institute Medium (RPMI, Wisent Inc, Saint-Jean-Baptiste, QC, Canada) supplemented with 10% FBS and 1% penicillin/streptomycin at 37 °C in 5% CO2. The cells were weaned off FBS for 2 h in RPMI-25mM Hepes, supplemented with 1% penicillin/streptomycin and 0.2% BSA. The kinetics of ligand internalization (incubation at 37 °C) and plasma membrane bound (incubation at 4 °C) were initiated by adding ATTO-465-MPE-298 at different time points. After incubation, the cells were washed 3 times with cold PBS to determine the total fluorescence and the cell surface bounds or with sodium acetate pH 4 buffer at 4 °C to assess the internalized fraction, followed by lysis in 0.5N NaOH/0.05% sodium dodecyl sulfate (SDS). For the characterization of the endocytosis pathways elicited by MPE-298, cells were pretreated with specific inhibitors 30 min before adding the fluorescent peptide as the tracer. Briefly, after being weaned off FBS, the cells were preincubated at 37 °C in 5% CO2 with cytochalasin D (2 μg/mL), as an inhibitor of actin polymerization, and with PP1 (3 μg/mL) and PP2 (3 μg/mL), as inhibitors of Src kinases. After 30 min of incubation, ATTO-465-MPE-298 was added for an additional 15 min. The fluorescence was analyzed with excitation/emission wavelengths at 510/580 nm using a BioTek Synergy2 (Agilent, Santa Clara, CA, USA)microplate reader.

Structure (SMILES) | effect of inhibitor on oxLDL-elicited mtROS production (RAW264.7 cells [1]) | effect of inhibitor on MPE-298's inhibition of oxLDL-elicited mtROS production (RAW264.7 cells [1]) | effect of inhibitor pretreatment on MPE-298- and oxLDL-induced loss of BRET signal (CD36) | effect of inhibitor on oxLDL-elicited mitochondrial membrane depolarization (RAW264.7 cells [2]) | effect of inhibitor on MPE-298's reversal of oxLDL-elicited mitochondrial membrane depolarization (RAW264.7 cells [2]) | effect of preincubation on oxLDL-induced CCL2 secretion (CCL2; 30 min preincubation) | effect of pre-exposure on MPE-298's effects on oxLDL-triggered CCL2 release (CCL2) | effect on oxLDL-induced JNK phosphorylation (JNK (Thr183/Tyr185)) | effect on oxLDL-induced p66Shc phosphorylation (p66Shc (Ser36)) | decrease of uptake of fluorescently labeled MPE-298 (RAW264.7 cells [3]) [%]
CCCCCCCCCCCCCCC(Br)C(=O)O (centres unmarked) [2-BP, 2-bromohexadecanoic acid] | neither SSO nor PP1 and 2-BP altered | blocked | abolish | prevented | did not block | – | – | – | – | –
CCCCCCCC/C=C\CCCCCCCC(=O)ON1C(=O)CC(S(=O)(=O)O)C1=O (centres unmarked) [SSO, sulfosuccinimidyl oleate] | neither SSO nor PP1 and 2-BP altered | blocked the protective effect | completely abolished | prevented | did not block | unaltered | completely abolished | did not prevent | did not prevent | –
Cc1ccc(-c2nn(C(C)(C)C)c3ncnc(N)c23)cc1 [PP1] | neither SSO nor PP1 and 2-BP altered | blocked the protective effect | completely abolished | prevented | did not block | – | – | – | – | 45
CC(C)(C)n1nc(-c2ccc(Cl)cc2)c2c(N)ncnc21 [PP2] | – | – | – | – | – | – | – | – | – | 41
C=C1[C@@H](C)[C@H]2[C@H](Cc3ccccc3)NC(=O)[C@]23[C@H](OC(C)=O)/C=C/[C@@](C)(O)C(=O)[C@@H](C)C/C=C/[C@H]3[C@@H]1O [cytochalasin D] | – | blocked the protective effect | completely abolished | prevented | – | – | – | – | – | 53
Oc1cc(O)cc(/C=C/c2ccc(O)c(O)c2)c1 [piceatannol] | – | – | completely abolished | – | – | – | – | – | – | –
